In patent US20150328250A1, “Animal Food Composition and Method” (HILL'S PET NUTRITION, INC., priority 2012, published 2015):

Columns and labels:
[1] = Amount of zinc bound to chitosan after 1 hour of dialysis; assay type: physicochemical
Protocol: (§1) The chitosan-controlled release of zinc was investigated. 0.1% solutions of chitosan were prepared. Zinc acetate was added to each of these solutions to provide a zinc ion concentration of 100 ppm or 200 ppm. The pH of the solutions was adjusted to 2, 5 or 7. Each solution was left at room temperature for 72 hours while gently mixing to allow for complete chitosan dissolution. Solutions containing zinc alone acted as controls for the experiment.
(§2) Each solution was subsequently transferred to dialysis tubing and placed in a jar containing deionized water. Stirring was carried out continuously throughout the duration of dialysis. Evaporative loss was minimized by placing a sealing wrap over the jar. A sample of the dialysate was removed at regular intervals and the zinc ion concentration was measured by inductively coupled plasma optical emission spectrometry (ICP-OES).
The amount of zinc bound to chitosan after 1 hour of dialysis at pH 2, 5 and 7 was also determined After 1 hour of dialysis, the amount of zinc that had been released through the dialysis tubing, in the presence and absence of chitosan, was measured as described above. The amount of zinc released in the presence of chitosan was subtracted from the amount of zinc released in the absence of chitosan to determine the amount of zinc bound to chitosan.

[2] = Chitosan-controlled release of zinc through dialysis tubing, dialysate zinc measured by ICP-OES; assay type: physicochemical
Protocol: as §1, §2

CC(=O)[O-].CC(=O)[O-].[Zn+2] [Zinc, Zinc acetate]
Zn++ released through the dialysis tubing ([1]; 100 ppm pH 2, after 1 hour of dialysis): 0.57 mg | Zn++ released through the dialysis tubing ([1]; 100 ppm pH 5, after 1 hour of dialysis): 1.62 mg | Zn++ released through the dialysis tubing ([1]; 100 ppm pH 7, after 1 hour of dialysis): 0.87 mg | Zn++ released through the dialysis tubing ([1]; 200 ppm pH 2, after 1 hour of dialysis): 1.68 mg | Zn++ released through the dialysis tubing ([1]; 200 ppm pH 5, after 1 hour of dialysis): 2.54 mg | Zn++ released through the dialysis tubing ([1]; 200 ppm pH 7, after 1 hour of dialysis): 1.68 mg | average rate of zinc release per hour ([2]; 100 ppm Zn acetate, pH 2): 0.54 mg/h | average rate of zinc release per hour ([2]; 100 ppm Zn acetate, pH 5): 1.38 mg/h | average rate of zinc release per hour ([2]; 100 ppm Zn acetate, pH 7): 0.85 mg/h | Amount of Zn++ released ([2]; 100 ppm zinc ion, pH 2, 0.00 hrs): 0 mg | Amount of Zn++ released ([2]; 100 ppm zinc ion, pH 2, 0.33 hrs): 0.25 ± 0.00 mg | Amount of Zn++ released ([2]; 100 ppm zinc ion, pH 2, 0.67 hrs): 0.42 ± 0.01 mg | Amount of Zn++ released ([2]; 100 ppm zinc ion, pH 2, 1.00 hrs): 0.52 ± 0.01 mg | Amount of Zn++ released ([2]; 100 ppm zinc ion, pH 2, 1.33 hrs): 0.75 ± 0.01 mg | Amount of Zn++ released ([2]; 100 ppm zinc ion, pH 2, 1.67 hrs): 0.90 ± 0.02 mg | Amount of Zn++ released ([2]; 100 ppm zinc ion, pH 2, 2.00 hrs): 1.01 ± 0.02 mg | Amount of Zn++ released ([2]; 100 ppm zinc ion, pH 2, 2.50 hrs): 1.40 ± 0.01 mg | Amount of Zn++ released ([2]; 100 ppm zinc ion, pH 2, 3.00 hrs): 1.66 ± 0.02 mg | Amount of Zn++ released ([2]; 100 ppm zinc ion, pH 5, 0.00 hrs): 0 mg | Amount of Zn++ released ([2]; 100 ppm zinc ion, pH 5, 0.33 hrs): 0.57 ± 0.01 mg | Amount of Zn++ released ([2]; 100 ppm zinc ion, pH 5, 0.67 hrs): 1.15 ± 0.02 mg | Amount of Zn++ released ([2]; 100 ppm zinc ion, pH 5, 1.00 hrs): 1.68 ± 0.02 mg | Amount of Zn++ released ([2]; 100 ppm zinc ion, pH 5, 1.33 hrs): 2.36 ± 0.07 mg | Amount of Zn++ released ([2]; 100 ppm zinc ion, pH 5, 1.67 hrs): 2.86 ± 0.07 mg | Amount of Zn++ released ([2]; 100 ppm zinc ion, pH 5, 2.00 hrs): 3.14 ± 0.01 mg | Amount of Zn++ released ([2]; 100 ppm zinc ion, pH 5, 2.50 hrs): 3.69 ± 0.05 mg | Amount of Zn++ released ([2]; 100 ppm zinc ion, pH 5, 3.00 hrs): 4.00 ± 0.00 mg | Amount of Zn++ released ([2]; 100 ppm zinc ion, pH 7, 0.00 hrs): 0 mg | Amount of Zn++ released ([2]; 100 ppm zinc ion, pH 7, 0.33 hrs): 0.30 ± 0.00 mg | Amount of Zn++ released ([2]; 100 ppm zinc ion, pH 7, 0.67 hrs): 0.71 ± 0.15 mg | Amount of Zn++ released ([2]; 100 ppm zinc ion, pH 7, 1.00 hrs): 0.82 ± 0.00 mg | Amount of Zn++ released ([2]; 100 ppm zinc ion, pH 7, 1.33 hrs): 1.11 ± 0.00 mg | Amount of Zn++ released ([2]; 100 ppm zinc ion, pH 7, 1.67 hrs): 1.40 ± 0.01 mg | Amount of Zn++ released ([2]; 100 ppm zinc ion, pH 7, 2.00 hrs): 1.78 ± 0.25 mg | average rate of zinc release per hour ([2]; 200 ppm Zn acetate, pH 2): 1.58 mg/h | average rate of zinc release per hour ([2]; 200 ppm Zn acetate, pH 5): 2.07 mg/h | average rate of zinc release per hour ([2]; 200 ppm Zn acetate, pH 7): 1.47 mg/h | Amount of Zn++ released ([2]; 200 ppm zinc ion, pH 2, 0.00 hrs): 0 mg | Amount of Zn++ released ([2]; 200 ppm zinc ion, pH 2, 0.33 hrs): 0.52 ± 0.00 mg | Amount of Zn++ released ([2]; 200 ppm zinc ion, pH 2, 0.67 hrs): 1.07 ± 0.00 mg | Amount of Zn++ released ([2]; 200 ppm zinc ion, pH 2, 1.00 hrs): 1.77 ± 0.07 mg | Amount of Zn++ released ([2]; 200 ppm zinc ion, pH 2, 1.33 hrs): 2.36 ± 0.01 mg | Amount of Zn++ released ([2]; 200 ppm zinc ion, pH 2, 1.67 hrs): 2.90 ± 0.01 mg | Amount of Zn++ released ([2]; 200 ppm zinc ion, pH 2, 2.00 hrs): 3.40 ± 0.05 mg | Amount of Zn++ released ([2]; 200 ppm zinc ion, pH 2, 2.50 hrs): 4.09 ± 0.01 mg | Amount of Zn++ released ([2]; 200 ppm zinc ion, pH 2, 3.00 hrs): 4.59 ± 0.00 mg | Amount of Zn++ released ([2]; 200 ppm zinc ion, pH 5, 0.00 hrs): 0 mg | Amount of Zn++ released ([2]; 200 ppm zinc ion, pH 5, 0.33 hrs): 0.99 ± 0.00 mg | Amount of Zn++ released ([2]; 200 ppm zinc ion, pH 5, 0.67 hrs): 1.91 ± 0.02 mg | Amount of Zn++ released ([2]; 200 ppm zinc ion, pH 5, 1.00 hrs): 2.73 ± 0.00 mg | Amount of Zn++ released ([2]; 200 ppm zinc ion, pH 5, 1.33 hrs): 3.61 ± 0.00 mg | Amount of Zn++ released ([2]; 200 ppm zinc ion, pH 5, 1.67 hrs): 4.25 ± 0.01 mg | Amount of Zn++ released ([2]; 200 ppm zinc ion, pH 5, 2.00 hrs): 4.85 ± 0.02 mg | Amount of Zn++ released ([2]; 200 ppm zinc ion, pH 5, 2.50 hrs): 5.59 ± 0.01 mg | Amount of Zn++ released ([2]; 200 ppm zinc ion, pH 5, 3.00 hrs): 6.13 ± 0.03 mg | Amount of Zn++ released ([2]; 200 ppm zinc ion, pH 7, 0.00 hrs): 0 mg | Amount of Zn++ released ([2]; 200 ppm zinc ion, pH 7, 0.33 hrs): 0.630 ± 0.00 mg | Amount of Zn++ released ([2]; 200 ppm zinc ion, pH 7, 0.67 hrs): 1.21 ± 0.01 mg | Amount of Zn++ released ([2]; 200 ppm zinc ion, pH 7, 1.00 hrs): 1.76 ± 0.01 mg | Amount of Zn++ released ([2]; 200 ppm zinc ion, pH 7, 1.33 hrs): 2.36 ± 0.02 mg | Amount of Zn++ released ([2]; 200 ppm zinc ion, pH 7, 1.67 hrs): 2.88 ± 0.02 mg | Amount of Zn++ released ([2]; 200 ppm zinc ion, pH 7, 2.00 hrs): 3.25 ± 0.04 mg
